From patent EP4803511A1, “SMALL MOLECULE COMPOUND HAVING SULFONIC ACID OR SULFINIC ACID LACTONE STRUCTURE, COMPOSITION AND USE THEREOF” (Hangzhou Phecdamed Co., Ltd., priority 2023, dated 2025)
Converted amounts (≈) assume the structure as drawn.

Legend:
[1] = test system: HaCaT cells; experiment: ROS content / ROS scavenging rate in HaCaT after UVB radiation (DCFH-DA); assay type: cell-based, human; conditions: content 0.0025%; HaCaT cells after UVB radiation
Text: Oxidative reactions such as respiration and metabolism in organisms generate reactive free radicals. Under normal bodily conditions, free radicals have a stable scavenging system, so that the free radical content of the body is kept at a relatively low concentration. Oxidative stress (OS) refers to an imbalance between oxidation and antioxidation in the body due to endogenous and/or exogenous stimuli, resulting in excessive free radical production. Excessive free radicals produce a series of negative effects in the body, including oxidative damage to biomolecules and further causing cell death and tissue damage, etc. In organisms, almost all ROS, except for trace amounts utilized by the body, should be promptly scavenged. Medium Wave Erythema Effect Ultraviolet (UVB) (280-319 nm) radiation damage is the most important factor leading to photoaging of the skin, primarily damaging keratinocytes (HaCaT), specifically manifested as the accumulation of photoproducts, increased ROS, and exacerbated oxidative damage, etc. Over long periods of evolution, organisms have developed a complete antioxidant system, maintaining a dynamic balance between the production and elimination of free radicals. This is an adaptive mechanism of organisms, and the main members include antioxidant enzymes, antioxidants, and proteins that separate transition metals, all of which can specifically limit oxidative damage to the body. Therefore, the antioxidant efficacy of a test compound can be evaluated by detecting the ROS scavenging rate in keratinocytes after UVB radiation.
• 1) Cell inoculation: HaCaT cells were inoculated into a 96-well plate at 2 × 10^4/well, cultured in an incubator (37 °C, 5% CO2) for 12 hrs, and a control group (120 mJ/cm^2 + vehicle control), a low concentration group (120 mJ/cm^2 + low concentration compound), a medium concentration group (120 mJ/cm^2 + medium concentration compound), and a high concentration group (120 mJ/cm^2 + high concentration compound) were respectively provided. • 2) UVB modeling: The HaCaT cells were washed 3 times with D'Hanks before UVB radiation, 50 µL of D'Hanks was added into the wells, to make the cells to be immersed, and the control group was coated with tinfoil and placed in the dark. For the test groups, UVB modeling was performed on the group requiring radiation, respectively. • 3) Administration: DMEM medium containing different concentrations of compound were added to each test group for continued culture for 24 hrs. • 4) Transferring the ROS fluorescent probe: DCFH-DA was Diluted to a final concentration of 10 µmol/L using PBS at a dilution ratio of 1:1000. The culture medium in all wells except the bare cell wells was discarded. After washing three times with PBS, 200 µL of DCFH-DA working solution was added to each well, then incubated in a CO2 incubator for 30 min, and after incubation, the cells in each well were washed with PBS for 3 times. • 5) Fluorescence analysis. The 96-well plate to be tested was placed on the detection stage of the fluorescence microplate reader, with the […] set to 525 nm, the excitation light wavelength set to 488 nm, and the reading was analyzed.
ROS scavenging rate (%) = (S(Modelcontrolgroup)−S(Samplegroup))/(S(Modelcontrolgroup)) × 100% [formula] wherein S is fluorescence intensity.

[2] = Kinetic solubility in aqueous buffer; assay type: physicochemical; conditions: 2 hrs at 25 °C
Procedure: Experimental Methods: 30 µL of the 10 mM DMSO stock solution of the compound to be test was placed in a solubility sample plate (duplicate), 970 µL of aqueous buffer solution was added to the plate, and the plate was sealed with a sealing membrane and shaken at 1100 rpm for 2 hrs at 25 °C. The sample in the solubility plate was transferred to a filter plate, and filtered to obtain a filtrate. 10 µL of the filtrate was transferred into 980 µL of methanol along with 10 µL of DMSO, and then the solution was diluted 10-fold with methanol:water (1:1), and the resulting sample was analyzed by LC-MS/MS to obtain Area (filtered). Separately, 10 mM of the DMSO stock solution of the compound to be test was diluted to 300 µM with DMSO. 10 µL of this 300 µM DMSO solution and 10 µL of aqueous buffer solution were added into 980 µL of methanol, and then diluted 10-fold with methanol:water (1:1), and the resulting sample was analyzed by LC-MS/MS to obtain Area (std). The kinetic solubility was calculated according to the following formula: Solubility(μM) = (Areafiltered × DFfiltered)/(Areastd × DFstd) × [std] × DFstd [formula] wherein DF is the dilution factor.

Compound	ROS scavenging rate [1] [%]	solubility kinetic at 2 h [2] [µM]
CN(C)C(=O)Oc1ccc2c(c1)OS(=O)(=O)c1cc(OC(=O)N(C)C)ccc1-2 [Compound I-13]	35	
CC(C)C(=O)Oc1ccc2c(c1)OS(=O)(=O)c1cc(OC(=O)C(C)C)ccc1-2 [Compound I-14]	29	
O=c1oc2cc(O)ccc2c2ccc(O)cc12 [Urolithin A, reference compound]		98.8 (≈ 22.5 µg/mL)
